In US20240245658A1, “TAAR1 AND SEROTONIN MODULATORS, AND PHARMACEUTICAL COMPOSITIONS, AND METHODS OF USE THEREOF” (Sunovion Pharmaceuticals Inc., priority 2021, published 2024) one finds EC50 and IC50 data, which are given here for 26 compounds.

SMILES strings stand for the structures. pEC50, pIC50: −log10 of the molar value. A value given as a limit tells only on which side of the number the result lay.

By pEC50 is commonly meant the negative decadic logarithm of the EC50, by convention in mol/L. A higher pEC50 goes with a small EC50. For orientation: pIC50 means the negative decadic logarithm of the IC50, by convention in mol/L.

T3 sequence (P34969 whole entry): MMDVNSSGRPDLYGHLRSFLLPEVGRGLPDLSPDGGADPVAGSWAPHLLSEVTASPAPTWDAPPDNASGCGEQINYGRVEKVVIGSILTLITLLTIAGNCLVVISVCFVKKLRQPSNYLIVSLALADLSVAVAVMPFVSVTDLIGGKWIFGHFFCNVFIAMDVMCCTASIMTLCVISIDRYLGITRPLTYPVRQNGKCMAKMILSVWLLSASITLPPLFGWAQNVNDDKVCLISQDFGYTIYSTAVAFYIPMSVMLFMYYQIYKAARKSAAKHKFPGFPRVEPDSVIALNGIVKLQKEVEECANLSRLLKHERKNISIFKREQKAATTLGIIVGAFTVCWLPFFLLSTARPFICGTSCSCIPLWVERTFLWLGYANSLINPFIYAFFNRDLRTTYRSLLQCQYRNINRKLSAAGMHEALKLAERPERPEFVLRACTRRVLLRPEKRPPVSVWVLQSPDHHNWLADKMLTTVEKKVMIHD

The first assay deals with T1, human TAAR1 receptors (Homo sapiens, UniProt Q96RJ0).
T1 construct: host or cells: CHO-K1
T1 sequence (Q96RJ0 1-339): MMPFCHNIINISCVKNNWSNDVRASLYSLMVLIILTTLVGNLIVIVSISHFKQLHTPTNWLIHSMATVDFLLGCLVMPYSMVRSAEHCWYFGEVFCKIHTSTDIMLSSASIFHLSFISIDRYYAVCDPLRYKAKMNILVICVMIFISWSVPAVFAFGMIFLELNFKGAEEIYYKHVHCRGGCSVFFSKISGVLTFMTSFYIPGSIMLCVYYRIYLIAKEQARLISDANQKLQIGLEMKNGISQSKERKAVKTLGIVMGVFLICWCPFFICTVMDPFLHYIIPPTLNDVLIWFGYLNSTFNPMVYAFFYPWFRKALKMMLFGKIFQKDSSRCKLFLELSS
Kind of assay: TAAR1 Agonism Assay: cAMP HTRF assay for Gs coupled receptor TAAR1 (Euroscreen FAST-0987C). The note with it: CHO-K1 cells expressing human TAAR1, cAMP HTRF. The class given is cell-based. The procedure: Dose response curves were performed in parallel with the reference compound, tyramine.
For the TAAR1 agonist test (performed in a 384 well plate): 5 μl of cells (about 3,000 cells) were mixed with 5 μl of the test compound diluted in assay buffer and then incubated for about 30 minutes at about room temperature. After addition of the lysis buffer containing cAMP-d2 and anti-cAMP cryptate detection reagents, plates were incubated for about a 1-hour incubation at about room temperature, and fluorescence ratios were measured according to the manufacturer specifications, with the HTRF (Homogeneous Time Resolved Fluorescence) kit (cAMP Gs dynamic kit, Cisbio Bioassays, 62AM4PEJ).
(§1) Compounds were tested at the following nanomolar concentrations, in duplicate: 0.3 nM, 1 nM, 3 nM, 10 nM, 30 nM, 100 nM, 300 nM, 1,000 nM, 3,000 nM, and 10,000 nM.
Background: TR-FRET usually uses a lanthanide donor and a delayed reading to cut background.
The compound `NCC1Cc2ccccc2Oc2cc(F)ccc21` (single isomer, unassigned) [Compound 1, (R*)-(7-fluoro-10,11-dihydrodibenzo[b,f]oxepin-10-yl)methanamine] gave a pEC50 of 5.00 to 6.00. Regarding `NCC1Cc2ccccc2Oc2cc(F)ccc21` (single isomer, unassigned) [Compound 2, (S*)-(7-fluoro-10,11-dihydrodibenzo[b,f]oxepin-10-yl)methanamine], the pEC50 was greater than 6.00.

Compound `CNCC1Cc2ncccc2Oc2cc(F)ccc21` (single isomer, unassigned) [Compound 33, (R*)-1-(7-fluoro-10,11-dihydrobenzo[6,7]oxepino[3,2-b]pyridin-10-yl)-N-methylmethanamine] had a pEC50 of less than 5.00. The compound `CNCC1Cc2ncccc2Oc2cc(F)ccc21` (single isomer, unassigned) [Compound 34, (S*)-1-(7-fluoro-10,11-dihydrobenzo[6,7]oxepino[3,2-b]pyridin-10-yl)-N-methylmethanamine] gave a pEC50 greater than 6.00. Compound `NCC1Cc2ncccc2Oc2cc(F)ccc21` (single isomer, unassigned) [Compound 35, (R*)-(7-fluoro-10,11-dihydrobenzo[6,7]oxepino[3,2-b]pyridin-10-yl)methanamine] gave a pEC50 of 5.00 to 6.00. Regarding `CNCC1Cc2ncc(F)cc2Oc2ccccc21` (single isomer, unassigned) [Compound 37, (R*)-1-(3-fluoro-10,11-dihydrobenzo[6,7]oxepino[3,2-b]pyridin-10-yl)-N-methylmethanamine], the pEC50 was less than 5.00.

The compound `NCC1Cc2ccc(F)cc2Oc2ccccc21` (single isomer, unassigned) [Compound 88, (R*)-(3-fluoro-10,11-dihydrodibenzo[b,f]oxepin-10-yl)methanamine] showed a pEC50 of 5.00 to 6.00.

The compound `NCC1Cc2ccccc2Oc2ccc(F)cc21` (single isomer, unassigned) [Compound 93, (S*)-(8-fluoro-10,11-dihydrodibenzo[b,f]oxepin-10-yl)methanamine] had a pEC50 of 5.00 to 6.00. Same read-out and setting: to `NCC1Cc2cc(F)ccc2Oc2ccccc21` (single isomer, unassigned) [Compound 97, (S*)-(2-fluoro-10,11-dihydrodibenzo[b,f]oxepin-10-yl)methanamine] belongs less than 5.00. On to `CNCC1Cc2cc(F)ccc2Oc2ccccc21` (single isomer, unassigned) [Compound 99, (S*)-(2-fluoro-10,11-dihydrodibenzo[b,f]oxepin-10-yl)-N-methylmethanamine], for which the pEC50 was less than 5.00. With `CNCC1Cc2ccccc2Oc2c(F)cccc21` (single isomer, unassigned) [Compound 103, (S*)-(6-fluoro-10,11-dihydrodibenzo[b,f]oxepin-10-yl)-N-methylmethanamine], the pEC50 is 5.00 to 6.00. The compound `CCNCC1Cc2ccccc2Oc2cccnc21` (single isomer, unassigned) [Compound 108, (S*)-1-(10,11-dihydrobenzo[6,7]oxepino[3,2-b]pyridin-11-yl)-N-ethylmethanamine] had a negative-log EC50 (pEC50) greater than 6.00.

The compound `CN(C)CC1Cc2ccccc2Oc2cccnc21` (single isomer, unassigned) [Compound 110, (S*)-1-(10,11-dihydrobenzo[6,7]oxepino[3,2-b]pyridin-11-yl)-N,N-dimethylmethanamine] showed a pEC50 of less than 5.00.

In turn, `CNCC1Cc2c(F)cccc2Oc2cccnc21` (single isomer, unassigned) [Compound 139, (R*)-1-(9-fluoro-10,11-dihydrobenzo[6,7]oxepino[3,2-b]pyridin-11-yl)-N-methylmethanamine] had a pEC50 of 5.00 to 6.00. Turning to `CNCC1Cc2c(C)cccc2Oc2cccnc21` (single isomer, unassigned) [Compound 142, (S*)-(9-methyl-10,11-dihydrobenzo[6,7]oxepino[3,2-b]pyridin-11-yl)-N-methylmethanamine], the pEC50 is 5.00 to 6.00. The same measure, in the same setting: to `CNCC1Cc2c(Cl)cccc2Oc2cccnc21` (single isomer, unassigned) [Compound 146, (S*)-(9-chloro-10,11-dihydrobenzo[6,7]oxepino[3,2-b]pyridin-11-yl)-N-methylmethanamine] belongs less than 5.00; to `NCC1Cc2cc(Br)ccc2Oc2cccnc21` (single isomer, unassigned) [Compound 148, (R*)-(8-bromo-10,11-dihydrobenzo[6,7]oxepino[3,2-b]pyridin-11-yl)methanamine], greater than 6.00. `NCC1Cc2ncccc2Oc2cccc(F)c21` (single isomer, unassigned) [Compound 155, (R*)-(9-fluoro-10,11-dihydrobenzo[6,7]oxepino[3,2-b]pyridin-10-yl)methanamine] had a pEC50 of 5.00 to 6.00. In turn, `CNCC1Cc2ncccc2Oc2cccc(F)c21` (single isomer, unassigned) [Compound 157, (R*)-(9-fluoro-10,11-dihydrobenzo[6,7]oxepino[3,2-b]pyridin-10-yl)-N-methylmethanamine] gave a pEC50 of less than 5.00. As to `NCC1Cc2ncccc2Oc2ccc(Cl)cc21` (single isomer, unassigned) [Compound 168, (S*)-(8-chloro-10,11-dihydrobenzo[6,7]oxepino[3,2-b]pyridin-10-yl)methanamine], the pEC50 was 5.00 to 6.00. In turn, `CNCC1Cc2ncccc2Oc2ccc(Cl)cc21` (single isomer, unassigned) [Compound 169, (R*)-1-(8-chloro-10,11-dihydrobenzo[6,7]oxepino[3,2-b]pyridin-10-yl)-N-methylmethanamine] had a pEC50 of less than 5.00. The same measure, in the same setting: to `NCC1Cc2ncccc2Oc2c(F)cccc21` (single isomer, unassigned) [Compound 175, (R*)-(6-fluoro-10,11-dihydrobenzo[6,7]oxepino[3,2-b]pyridin-10-yl)methanamine] belongs 5.00 to 6.00. `CNCC1Cc2ncccc2Oc2c(F)cccc21` (single isomer, unassigned) [Compound 177, (R*)-1-(6-fluoro-10,11-dihydrobenzo[6,7]oxepino[3,2-b]pyridin-10-yl)-N-methylmethanamine]: the pEC50 was less than 5.00. The same measure, in the same setting: to `CNCC1Cc2ncccc2Oc2c(F)cccc21` (single isomer, unassigned) [Compound 178, (S*)-1-(6-fluoro-10,11-dihydrobenzo[6,7]oxepino[3,2-b]pyridin-10-yl)-N-methylmethanamine] belongs greater than 6.00.

The compound `C[C@H]1c2ccccc2Oc2cccnc2[C@H]1CN` (stereo in doubt) [Compound 113, ((10R*,11R*)-10-methyl-10,11-dihydrobenzo[6,7]oxepino[3,2-b]pyridin-11-yl)methanamine] showed a pEC50 of less than 5.00. Turning to `CNC[C@@H]1c2ncccc2Oc2ccccc2[C@@H]1C` (stereo in doubt) [Compound 117, ((10R*,11R*)-10-methyl-10,11-dihydrobenzo[6,7]oxepino[3,2-b]pyridin-11-yl)-N-methylmethanamine], the pEC50 is less than 5.00.

The target of a further assay is T2, human 5-HT2A receptor (Homo sapiens, UniProt P28223).
T2 construct: host or cells: CHO-K1
T2 sequence (P28223 whole entry): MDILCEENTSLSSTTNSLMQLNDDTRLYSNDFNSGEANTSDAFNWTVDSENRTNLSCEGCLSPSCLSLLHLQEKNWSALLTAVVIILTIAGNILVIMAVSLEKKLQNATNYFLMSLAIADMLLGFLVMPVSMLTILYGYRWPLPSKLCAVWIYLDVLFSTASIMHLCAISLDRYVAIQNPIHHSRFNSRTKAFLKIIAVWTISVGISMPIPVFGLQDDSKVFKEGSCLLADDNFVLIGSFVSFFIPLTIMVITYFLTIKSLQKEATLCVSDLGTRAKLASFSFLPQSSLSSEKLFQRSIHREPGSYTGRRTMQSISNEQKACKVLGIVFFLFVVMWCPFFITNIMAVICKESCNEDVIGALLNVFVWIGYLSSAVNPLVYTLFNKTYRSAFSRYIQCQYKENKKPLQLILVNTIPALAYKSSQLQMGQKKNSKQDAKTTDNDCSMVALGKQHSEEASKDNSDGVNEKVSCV
Nature of the assay: 5HT2A Antagonism Assay (Euroscreen FAST-05051), IP-One HTRF. Particulars: 5-HT2A (IC50), CHO-K1 cells expressing human 5-HT2A, reference agonist at EC80, IP-One. The class given is cell-based. On the procedure:
5HT2A Antagonism Assay Protocol (Euroscreen FAST-05051)
CHO-K1 cells expressing the human 5-HT2A receptor grown to mid-log phase in culture media without antibiotics, were detached with PBS-EDTA, centrifuged, and resuspended in the IP-One Gq kit (Cisbio Bioassays, 62IPAPEC) stimulation buffer.
For antagonist testing in a 384 well plate: 5 μl of cells (20,000 cells) were mixed with 5 μl of a mix of test compound and reference agonist (for a final assay concentration corresponding to its EC80) diluted in stimulation buffer. The plate was incubated for 60 minutes at 37° C. in a humidified atmosphere of 95% air with 5% CO2, then 5 μL of IP1-d2 and anti-IP1 cryptate detection reagents were added to each well, the plates were incubated for about 1 hour at about room temperature. Fluorescence ratios are measured according to the manufacturer's specification (IP-One Gq kit (Cisbio Bioassays, 62IPAPEC).
Dose response curves were performed in parallel with reference compounds (e.g., α-methyl-5-HT. Compounds were tested at the following nanomolar concentrations, in duplicate: 0.3 nM, 1 nM, 3 nM, 10 nM, 30 nM, 100 nM, 300 nM, 1,000 nM, 3,000 nM, and 10,000 nM
Compound `NCC1Cc2ccccc2Oc2cc(F)ccc21` (single isomer, unassigned) [Compound 1, (R*)-(7-fluoro-10,11-dihydrodibenzo[b,f]oxepin-10-yl)methanamine] gave a pIC50 greater than 6.00.

Still in this assay, the particulars now being: read-out: 5-HT2A (IC50), CHO-K1 cells expressing human 5-HT2A, reference agonist at EC80, IP-One.
As for `NCC1Cc2ccccc2Oc2cc(F)ccc21` (single isomer, unassigned) [Compound 2, (S*)-(7-fluoro-10,11-dihydrodibenzo[b,f]oxepin-10-yl)methanamine], the pIC50 was greater than 6.00.

The next assay concerns the target T3, human 5-HT7 receptor (Homo sapiens, UniProt P34969).
T3 construct: host or cells: CHO-K1
Kind of assay: 5HT7 Antagonism Assay (Euroscreen FAST-0499C), cAMP HTRF. The class given is cell-based. Particulars: CHO-K1 cells expressing human 5-HT7, reference agonist at EC80, cAMP HTRF. The procedure:
5HT7 Antagonism Assay Protocol (Euroscreen FAST-0499C)
CHO-K1 cells expressing the human 5-HT7 receptor, grown prior to the test in media without antibiotic, were detached by gentle flushing with PBS-EDTA (5 mM EDTA), recovered by centrifugation and resuspended in assay buffer (Krebs-Ringer HEPES buffer: 5 mM KCl, 1.25 mM MgSO4, 124 mM NaCl, 25 mM HEPES, 13.3 mM Glucose, 1.25 mM KH2PO4, 1.45 mM CaCl2), 0.5 g/l BSA, supplemented with 1 mM IBMX).
Dose response curves were performed in parallel with reference compounds (e.g., 5-carboxamidotryptamine (5-CT)).
For antagonist testing in a 384 well plate: 5 μl of cells (3000 cells) were mixed with 5 μl of a mix of test compound and reference agonist (for a final assay concentration corresponding to its EC80) diluted in assay buffer. The plates were then incubated for about 30 minutes at about room temperature. After addition of the lysis buffer containing cAMP-d2 and anti-cAMP cryptate detection reagents, plates were incubated for about 1 hour at about room temperature, and fluorescence ratios were measured according to the manufacturer's specifications (HTRF kit: cAMP Gs dynamic kit, Cisbio Bioassays, 62AM4PEJ).
as §1
In turn, `NCC1Cc2ccccc2Oc2cc(F)ccc21` (single isomer, unassigned) [Compound 1, (R*)-(7-fluoro-10,11-dihydrodibenzo[b,f]oxepin-10-yl)methanamine] gave a pIC50 of no more than 5.00. `NCC1Cc2ccccc2Oc2cc(F)ccc21` (single isomer, unassigned) [Compound 2, (S*)-(7-fluoro-10,11-dihydrodibenzo[b,f]oxepin-10-yl)methanamine] gave a pIC50 of no more than 5.00.
